{"source": "patent US20090030066A1", "about": "“SMALL MOLECULES FOR THE PROTECTION OF PANCREATIC CELLS” (priority 2007, published 2009)", "tested_on": "human bone marrow-derived mesenchymal stem cells (MSC)", "experiment": "Expansion (cell count) of human bone marrow-derived mesenchymal stem cells", "type": "cell-based", "conditions": "for Cell number per culture: Table 4 experiment; for Cell number/culture: Table 5 experiment", "source_text": "Bone marrow aspirates were taken from normal adult donors signed after informed consent according to a protocol approved by the appropriate Ethics Committee. For the preparation of bone marrow mesenchymal stem cells, essentially a widely used technique was used as described earlier by others [Pittenger, M. F., Mackay, A. M., Beck, S. C., Jaiswal, R. K., Douglas, R., Mosca, J. D., Moorman, M. A., Simonetti, D. W., Craig, S, and Marshak, D. R., Multilineage potential of adult human mesenchymal stem cells (1999) Science 284, 143-147]. Briefly, nucleated cells were isolated with a pre-prepared commercial density gradient (Lymphoprep, Nycomed, Pharma, Oslo, Norway) and resuspended in Dulbecco's modified Eagle's medium (DMEM) (GIBCO, Grand Island, N.Y.) supplemented with 10% fetal calf serum (FCS), 50 U/ml of penicillin, and 50 μg/ml of streptomycin (GIBCO). All nucleated cells were plated in 25-cm^2 flasks (BD Falcon, Bedford, Mass.) at 37° C. in humidified atmosphere containing 5% CO2. After 24 hours, nonadherent cells were removed and cryopreserved in liquid nitrogen until use. The remaining adherent cells were thoroughly washed with Hanks balanced salt solution (HBSS) (GIBCO). Fresh complete culture medium was added and replaced every 3 or 4 days (twice a week). When cells grew to about 80% confluence, they were suspended and harvested by incubating with a ready-made solution containing 0.25% trypsin and 1 mM EDTA (Sigma-Aldrich, St. Louis, Mo.) for 5 minutes at 37° C.; this cell suspension is designated as passage 1. These cells were further expanded with 1:3-1:5 splitting in 175-cm^2 flasks (BD Falcon).\nThe total numbers of nucleated and viable cells were determined with a hemocytometer, using Turck's solution and trypan blue stain, respectively. The morphology of MSC was examined every week under an inverted microscope (Olympos CK2, Tokyo, Japan) to verify that cells retained their structural characteristics. In the two experiments described below, MSCs were split into 24-well “F-bottom” plates at passage 5.\nIn both experiments, about 80% confluent cells were split into 24-well “F-bottom” plates. Then after 24 hours in 10% serum containing medium (at about 30-35% confluence), the medium was replaced for either serum-free medium or 2% or 10 fetal calf serum containing medium. […] In both experiments, the data are the mean ±S.D. of 5 incubations."}
{"compound": "Cc1c(OCC(O)C[N+](C)(C)C)cc2c(=O)c3ccccc3sc2c1C.[Cl-]", "note": "(stereo not shown) [CCcompound1, [3-(3,4-Dimethyl-9-oxo-9H-thioxanthen-2-yloxy)-2-hydroxypropyl]trimethyl-ammonium chloride]", "values": [{"measurement": "effect on MSC proliferation", "setting": "10 μM, 10% serum", "value": "enhanced cell proliferation"}, {"measurement": "effect on expansion of stem cells", "setting": "5-10 μM, absence and presence of 2% serum, between days 3 and 6", "value": "significantly increased the expansion of stem cells"}, {"measurement": "effect on MSC cell numbers", "setting": "5-10 μM, absence or presence of 2% serum, first 3 days", "value": "slightly enhance cell numbers"}, {"measurement": "Cell number per culture", "setting": "0% serum, day 2, 5 μM", "value": "6.4 ± 2.0 ×10^−3"}, {"measurement": "Cell number per culture", "setting": "0% serum, day 2, 10 μM", "value": "5.9 ± 1.9 ×10^−3"}, {"measurement": "Cell number per culture", "setting": "0% serum, day 2, 50 μM", "value": "4.0 ± 1.6 ×10^−3"}, {"measurement": "Cell number per culture", "setting": "0% serum, day 4, 5 μM", "value": "8.1 ± 2.1 ×10^−3"}, {"measurement": "Cell number per culture", "setting": "0% serum, day 4, 10 μM", "value": "6.8 ± 2.4 ×10^−3"}, {"measurement": "Cell number per culture", "setting": "0% serum, day 4, 50 μM", "value": "3.4 ± 1.1 ×10^−3"}, {"measurement": "Cell number per culture", "setting": "0% serum, day 6, 5 μM", "value": "12.5 ± 1.6 ×10^−3"}, {"measurement": "Cell number per culture", "setting": "0% serum, day 6, 10 μM", "value": "10.2 ± 1.4 ×10^−3"}, {"measurement": "Cell number per culture", "setting": "0% serum, day 6, 50 μM", "value": "3.8 ± 1.2 ×10^−3"}, {"measurement": "Cell number per culture", "setting": "2% serum, day 2, 5 μM", "value": "7.1 ± 2.7 ×10^−3"}, {"measurement": "Cell number per culture", "setting": "2% serum, day 2, 10 μM", "value": "6.3 ± 1.6 ×10^−3"}, {"measurement": "Cell number per culture", "setting": "2% serum, day 2, 50 μM", "value": "3.9 ± 1.1 ×10^−3"}, {"measurement": "Cell number per culture", "setting": "2% serum, day 4, 5 μM", "value": "11.6 ± 2.4 ×10^−3"}, {"measurement": "Cell number per culture", "setting": "2% serum, day 4, 10 μM", "value": "9.2 ± 2.3 ×10^−3"}, {"measurement": "Cell number per culture", "setting": "2% serum, day 4, 50 μM", "value": "5.2 ± 1.6 ×10^−3"}, {"measurement": "Cell number per culture", "setting": "2% serum, day 6, 5 μM", "value": "20.8 ± 2.5 ×10^−3"}, {"measurement": "Cell number per culture", "setting": "2% serum, day 6, 10 μM", "value": "17.4 ± 2.0 ×10^−3"}, {"measurement": "Cell number per culture", "setting": "2% serum, day 6, 50 μM", "value": "7.0 ± 3.3 ×10^−3"}, {"measurement": "Cell number/culture", "setting": "2.0 μM, 0% serum, Day 3", "value": "4.7 ± 3.5 ×10^−3"}, {"measurement": "Cell number/culture", "setting": "2.0 μM, 0% serum, Day 6", "value": "6.2 ± 1.7 ×10^−3"}, {"measurement": "Cell number/culture", "setting": "2.0 μM, 2% serum, Day 3", "value": "4.9 ± 2.6 ×10^−3"}, {"measurement": "Cell number/culture", "setting": "2.0 μM, 2% serum, Day 6", "value": "16.4 ± 2.5 ×10^−3"}, {"measurement": "Cell number/culture", "setting": "2.0 μM, 10% serum, Day 3", "value": "5.9 ± 1.7 ×10^−3"}, {"measurement": "Cell number/culture", "setting": "2.0 μM, 10% serum, Day 6", "value": "33.3 ± 5.2 ×10^−3"}, {"measurement": "Cell number/culture", "setting": "5.0 μM, 0% serum, Day 3", "value": "5.9 ± 2.1 ×10^−3"}, {"measurement": "Cell number/culture", "setting": "5.0 μM, 0% serum, Day 6", "value": "10.3 ± 2.5 ×10^−3"}, {"measurement": "Cell number/culture", "setting": "5.0 μM, 2% serum, Day 3", "value": "7.2 ± 1.3 ×10^−3"}, {"measurement": "Cell number/culture", "setting": "5.0 μM, 2% serum, Day 6", "value": "18.3 ± 4.8 ×10^−3"}, {"measurement": "Cell number/culture", "setting": "5.0 μM, 10% serum, Day 3", "value": "6.2 ± 2.6 ×10^−3"}, {"measurement": "Cell number/culture", "setting": "5.0 μM, 10% serum, Day 6", "value": "36.4 ± 5.2 ×10^−3"}, {"measurement": "Cell number/culture", "setting": "10.0 μM, 0% serum, Day 3", "value": "6.3 ± 2.2 ×10^−3"}, {"measurement": "Cell number/culture", "setting": "10.0 μM, 0% serum, Day 6", "value": "13.3 ± 3.2 ×10^−3"}, {"measurement": "Cell number/culture", "setting": "10.0 μM, 2% serum, Day 3", "value": "5.6 ± 1.6 ×10^−3"}, {"measurement": "Cell number/culture", "setting": "10.0 μM, 2% serum, Day 6", "value": "19.0 ± 3.8 ×10^−3"}, {"measurement": "Cell number/culture", "setting": "10.0 μM, 10% serum, Day 3", "value": "5.1 ± 1.7 ×10^−3"}, {"measurement": "Cell number/culture", "setting": "10.0 μM, 10% serum, Day 6", "value": "39.1 ± 4.1 ×10^−3"}, {"measurement": "Cell number/culture", "setting": "25.0 μM, 0% serum, Day 3", "value": "4.4 ± 1.7 ×10^−3"}, {"measurement": "Cell number/culture", "setting": "25.0 μM, 0% serum, Day 6", "value": "6.4 ± 3.1 ×10^−3"}, {"measurement": "Cell number/culture", "setting": "25.0 μM, 2% serum, Day 3", "value": "4.7 ± 2.6 ×10^−3"}, {"measurement": "Cell number/culture", "setting": "25.0 μM, 2% serum, Day 6", "value": "12.9 ± 4.9 ×10^−3"}, {"measurement": "Cell number/culture", "setting": "25.0 μM, 10% serum, Day 3", "value": "5.2 ± 2.1 ×10^−3"}, {"measurement": "Cell number/culture", "setting": "25.0 μM, 10% serum, Day 6", "value": "33.5 ± 5.3 ×10^−3"}, {"measurement": "Cell number/culture", "setting": "100.0 μM, 0% serum, Day 3", "value": "1.1 ± 1.6 ×10^−3"}, {"measurement": "Cell number/culture", "setting": "100.0 μM, 0% serum, Day 6", "value": "1.3 ± 1.1 ×10^−3"}, {"measurement": "Cell number/culture", "setting": "100.0 μM, 2% serum, Day 3", "value": "1.5 ± 1.1 ×10^−3"}, {"measurement": "Cell number/culture", "setting": "100.0 μM, 2% serum, Day 6", "value": "5.8 ± 3.2 ×10^−3"}, {"measurement": "Cell number/culture", "setting": "100.0 μM, 10% serum, Day 3", "value": "4.4 ± 2.5 ×10^−3"}, {"measurement": "Cell number/culture", "setting": "100.0 μM, 10% serum, Day 6", "value": "14.8 ± 3.1 ×10^−3"}, {"measurement": "decrease of the effects on cell survival and proliferation when added late", "setting": "compound added 6 hours after medium change, data not shown", "value": "50-70%"}]}
